Source: ChEMBL document CHEMBL4411303, “Synthesis of tetrazole derivatives bearing pyrrolidine scaffold and evaluation of their antifungal activity against Candida albicans” (Eur J Med Chem, 2019)
Converted amounts (≈) assume the structure as drawn. The source made the active and inactive calls. The rule behind the calls is not given here.

Key:
[1] = Toxicity in Galleria mellonella larvae assessed as cocoon formation at 41.47 uM measured after 48 hrs (reference value: 85 +/- 5%)
Candida albicans [2] = assay: Antifungal activity against Candida albicans ATCC 90028 assessed as planktonic growth inhibition at 10.37 uM after 48 hrs by M27-A3 protocol based method relative to control; format: functional; conditions: ATCC 90028, 48 h, read-out: GI
Candida albicans [3] = assay: Inhibition of Candida albicans ATCC 90028 cell adhesion to human TR146 cells at reduction in cell adherence at 41.47 uM relative to control; format: functional; conditions: ATCC 90028, TR146
[4] = Selectivity index, ratio of CC50 for African green monkey Vero cells to IC50 for Candida albicans ATCC 90028; format: toxicity; conditions: read-out: Ratio CC50/IC50
[5] = Toxicity in Galleria mellonella larvae assessed as movement melanization at 41.47 uM measured after 128 hrs (reference value: 0%)
Candida albicans [6] = assay: Antifungal activity against Candida albicans ATCC 90028 assessed as planktonic growth inhibition at 0.65 uM after 48 hrs by M27-A3 protocol based method relative to control; format: functional; conditions: ATCC 90028, 48 h, read-out: GI
Candida albicans [7] = assay: Antifungal activity against Candida albicans ATCC 90028 assessed as planktonic growth inhibition at 20.73 uM after 48 hrs by M27-A3 protocol based method relative to control; format: functional; conditions: ATCC 90028, 48 h, read-out: GI
Candida albicans [8] = assay: Antifungal activity against Candida albicans ATCC 90028 assessed as reduction in cell growth after 48 to 72 hrs by M27-A3 protocol based method; format: functional
Candida albicans [9] = assay: Antifungal activity against Candida albicans ATCC 90028 assessed as planktonic growth inhibition at 1.3 uM after 48 hrs by M27-A3 protocol based method relative to control; format: functional; conditions: ATCC 90028, 48 h, read-out: GI
[10] = Toxicity in Galleria mellonella larvae assessed as movement melanization at 41.47 uM measured after 18 hrs (reference value: 0%)
Candida albicans [11] = assay: Antifungal activity against Candida albicans ATCC 90028 assessed as planktonic growth inhibition at 0.32 uM after 48 hrs by M27-A3 protocol based method relative to control; format: functional; conditions: ATCC 90028, 48 h, read-out: GI
[12] = Toxicity in Galleria mellonella larvae assessed as survival rate at 41.47 uM measured after 18 hrs (reference value: 100%)
[13] = Toxicity in Galleria mellonella larvae assessed as survival rate at 41.47 uM measured after 48 hrs (reference value: 100%)
Candida albicans [14] = assay: Antibiofilm activity against Candida albicans ATCC 90028 assessed as inhibition of biofilm formation after 24 hrs by XTT assay; format: functional, organism-based; conditions: ATCC 90028, 24 h
Candida albicans [15] = assay: Antifungal activity against Candida albicans ATCC 90028 assessed as planktonic growth inhibition at 41.47 uM after 48 hrs by M27-A3 protocol based method relative to control; format: functional; conditions: ATCC 90028, 48 h, read-out: GI
[16] = Toxicity in Galleria mellonella larvae assessed as movement melanization at 41.47 uM measured after 48 hrs (reference value: 0%)
Candida albicans [17] = assay: Antifungal activity against Candida albicans ATCC 90028 assessed as planktonic growth inhibition at 5.18 uM after 48 hrs by M27-A3 protocol based method relative to control; format: functional; conditions: ATCC 90028, 48 h, read-out: GI
[18] = Toxicity in Galleria mellonella larvae assessed as cocoon formation at 41.47 uM measured after 48 hrs (reference value: 100 +/- 0%)
Candida albicans [19] = assay: Fungicidal activity against Candida albicans ATCC 90028 assessed as log reduction in fungal load incubated for 48 hrs followed by replating on sabouraud dextrose agar plate and measured after 48 hrs; format: functional
Candida albicans [20] = assay: Antifungal activity against Candida albicans ATCC 90028 assessed as planktonic growth inhibition at 2.59 uM after 48 hrs by M27-A3 protocol based method relative to control; format: functional; conditions: ATCC 90028, 48 h, read-out: GI
Candida albicans [21] = assay: Antifungal activity against Candida albicans ATCC 90028 assessed as planktonic growth inhibition at 0.08 uM after 48 hrs by M27-A3 protocol based method relative to control; format: functional; conditions: ATCC 90028, 48 h, read-out: GI
[22] = Toxicity in Galleria mellonella larvae assessed as survival rate at 41.47 uM measured after 120 hrs (reference value: 100%)
Candida albicans [23] = assay: Cell cycle arrest in Candida albicans ATCC 90028 assessed as accumulation at G0/G1-phase by propidium iodide staining based flow cytometry; format: functional, organism-based
Candida albicans [24] = assay: Antifungal activity against Candida albicans ATCC 90028 assessed as planktonic growth inhibition at 0.16 uM after 48 hrs by M27-A3 protocol based method relative to control; format: functional; conditions: ATCC 90028, 48 h, read-out: GI
[25] = Toxicity in Galleria mellonella larvae assessed as cocoon formation at 41.47 uM measured after 18 hrs (reference value: 60 +/- 20%)
Candida albicans [26] = assay: Antifungal activity against Candida albicans ATCC 90028 assessed as reduction in cell growth after 48 to 72 hrs in presence of ergosterol by M27-A3 protocol based method; format: functional
Candida albicans [27] = assay: Induction of reactive oxygen species generation in Candida albicans ATCC 90028 assessed as ROS level at 41.47 uM after 18 hrs by DCFDA probe based flow cytometry (reference value: 0.3%); format: functional
Candida albicans [28] = assay: Induction of Candida albicans ATCC 90028 internalization in mouse RAW264.7 cells assessed as reduction in fungus-induced cell damage by measuring live and early apoptotic cells at 41.47 uM after 2 hrs acridine orange/ethidium bromide staining based confocal scanning microscopic analysis; format: functional, organism-based
Candida albicans [29] = assay: Antifungal activity against Candida albicans ATCC 90028 assessed as planktonic growth inhibition at 0.71 uM after 48 hrs by M27-A3 protocol based method relative to control; format: functional; conditions: ATCC 90028, 48 h, read-out: GI
Candida albicans [30] = assay: Antifungal activity against Candida albicans ATCC 90028 infected in Galleria mellonella larvae assessed as induction of pathogen entrapping by haemocytes at 10 uL measured at 24 hrs interval for 144 hrs by HE staining based microscopic analysis; format: functional, organism-based
Candida albicans [31] = assay: Antifungal activity against Candida albicans ATCC 90028 assessed as planktonic growth inhibition at 11.38 uM after 48 hrs by M27-A3 protocol based method relative to control; format: functional; conditions: ATCC 90028, 48 h, read-out: GI
Candida albicans [32] = assay: Antifungal activity against Candida albicans ATCC 90028 assessed as planktonic growth inhibition at 0.09 uM after 48 hrs by M27-A3 protocol based method relative to control; format: functional; conditions: ATCC 90028, 48 h, read-out: GI
Candida albicans [33] = assay: Antifungal activity against Candida albicans ATCC 90028 assessed as planktonic growth inhibition at 45.53 uM after 48 hrs by M27-A3 protocol based method relative to control; format: functional; conditions: ATCC 90028, 48 h, read-out: GI
Candida albicans [34] = assay: Antifungal activity against Candida albicans ATCC 90028 infected in Galleria mellonella larvae assessed as inhibition of fungus filamentation at 10 uL measured at 24 hrs interval for 144 hrs by HE staining based microscopic analysis; format: functional, organism-based
Candida albicans [35] = assay: Antifungal activity against Candida albicans ATCC 90028 assessed as planktonic growth inhibition at 0.36 uM after 48 hrs by M27-A3 protocol based method relative to control; format: functional; conditions: ATCC 90028, 48 h, read-out: GI
Candida albicans [36] = assay: Antifungal activity against Candida albicans ATCC 90028 assessed as planktonic growth inhibition at 1.42 uM after 48 hrs by M27-A3 protocol based method relative to control; format: functional; conditions: ATCC 90028, 48 h, read-out: GI
Candida albicans [37] = assay: Antifungal activity against Candida albicans ATCC 90028 assessed as planktonic growth inhibition at 22.76 uM after 48 hrs by M27-A3 protocol based method relative to control; format: functional; conditions: ATCC 90028, 48 h, read-out: GI
Candida albicans [38] = assay: Antifungal activity against Candida albicans ATCC 90028 assessed as planktonic growth inhibition at 5.69 uM after 48 hrs by M27-A3 protocol based method relative to control; format: functional; conditions: ATCC 90028, 48 h, read-out: GI
Candida albicans [39] = assay: Antifungal activity against Candida albicans ATCC 90028 assessed as planktonic growth inhibition at 0.18 uM after 48 hrs by M27-A3 protocol based method relative to control; format: functional; conditions: ATCC 90028, 48 h, read-out: GI
Candida albicans [40] = assay: Antifungal activity against Candida albicans ATCC 90028 assessed as planktonic growth inhibition at 2.85 uM after 48 hrs by M27-A3 protocol based method relative to control; format: functional; conditions: ATCC 90028, 48 h, read-out: GI
Candida albicans [41] = assay: Antifungal activity against Candida albicans ATCC 90028 assessed as planktonic growth inhibition at 0.27 uM after 48 hrs by M27-A3 protocol based method relative to control; format: functional; conditions: ATCC 90028, 48 h, read-out: GI
Candida albicans [42] = assay: Antibiofilm activity against Candida albicans ATCC 90028 assessed as inhibition of biofilm formation […] after 24 hrs by XTT assay relative to control; format: functional, organism-based; conditions: ATCC 90028, 24 h

Structure (SMILES): Fc1ccc(C2CCCN2CCCn2nnc(-c3ccc(Cl)cc3)n2)cc1 (centres undefined)
- Activity [1]: 80%
- inhibition of growth at 10.37 µM (Candida albicans [2]): 99.1%
- inhibition at 41.47 µM (Candida albicans [3]): > 95%
- selectivity ratio [4]: 2
- Activity [5]: 13%
- inhibition of growth at 0.65 µM (Candida albicans [6]): 99.4%
- inhibition of growth at 20.73 µM (Candida albicans [7]): 98.9%
- MIC (Candida albicans [8]): 10.4 µM (≈ 4 µg/mL)
- inhibition of growth at 1.3 µM (Candida albicans [9]): 99.2%
- Activity [10]: 0%
- inhibition of growth at 0.32 µM (Candida albicans [11]): 99.4%
- survival at 18 h, 41.47 µM [12]: 100%
- survival at 48 h, 41.47 µM [13]: 100%
- IC50 (Candida albicans [14]): 10.4 µM
- inhibition of growth at 41.47 µM (Candida albicans [15]): 99%
- Activity [16]: 0%
- inhibition of growth at 5.18 µM (Candida albicans [17]): 99.4%
- Activity [18]: 80%
- log(activity) (Candida albicans [19]): -0.2
- inhibition of growth at 2.59 µM (Candida albicans [20]): 99.5%
- inhibition of growth at 0.08 µM (Candida albicans [21]): 99.4%
- survival at 120 h, 41.47 µM [22]: 83%
- Activity (Candida albicans [23]): Active
- inhibition of growth at 0.16 µM (Candida albicans [24]): 99.4%
- Activity [25]: 60%
- MIC (Candida albicans [26]): 20.7 µM
- Activity (Candida albicans [27]): 12 - 16%
- Activity (Candida albicans [28]): Active

Structure (SMILES): Fc1ccc(C2CCCN2CCCn2nnc(-c3ccccc3)n2)cc1 (centres undefined)
- inhibition of growth at 0.71 µM (Candida albicans [29]): 99.3%
- Activity (Candida albicans [30]): Active
- inhibition of growth at 11.38 µM (Candida albicans [31]): 99.3%
- inhibition of growth at 0.09 µM (Candida albicans [32]): 99.2%
- inhibition of growth at 45.53 µM (Candida albicans [33]): 99.5%
- inhibition (Candida albicans [34]): Active
- log(activity) (Candida albicans [19]): -0.5
- inhibition of growth at 0.36 µM (Candida albicans [35]): 99.2%
- inhibition of growth at 1.42 µM (Candida albicans [36]): 99.5%
- inhibition of growth at 22.76 µM (Candida albicans [37]): 99.2%
- Activity (Candida albicans [23]): Active
- inhibition of growth at 5.69 µM (Candida albicans [38]): 99.3%
- inhibition of growth at 0.18 µM (Candida albicans [39]): 99.2%
- inhibition of growth at 2.85 µM (Candida albicans [40]): 99.3%

Structure (SMILES): C[C@@H]1[C@H](O)[C@@H](C)/C=C/C=C/C=C/C=C/C=C/C=C/C=C/[C@H](O[C@@H]2O[C@H](C)[C@@H](O)[C@H](N)[C@@H]2O)C[C@@H]2O[C@](O)(C[C@@H](O)C[C@@H](O)[C@H](O)CC[C@@H](O)C[C@@H](O)CC(=O)O[C@H]1C)C[C@H](O)[C@H]2C(=O)O [AMPHOTERICIN B]
- inhibition of growth at 0.27 µM (Candida albicans [41]): 100%
- IC50 (Candida albicans [42]): 100 µM
